The subject of data set [1] is IFN-γ mediated MHC class I upregulation on β cells. More on the design: method as in PMID 28292965. The following applies: cited from earlier work.
The subject of data set [2] is autoimmune insulitis in NOD mice. More on the design: method as in PMID 28292965. The note with it: cited from earlier work.
Data set [3] concerns IL-21 signaling in T cells. Kind of data set: IL-21-induced pSTAT3 in spleen T cells in vitro (flow cytometry). The data set is classed as cell-based, mouse. The note with it: 0.05, 0.2, 1 and 2 µM, CD8+ and CD4+ T cells, Fig S2K-L. Here is the method: […] […] For use in vivo, 3 mg/kg or 10 mg/kg of drug was delivered twice daily by oral gavage in the vehicle 0.5% hydroxypropyl methylcellulose in sterile H2O. The JAK1/JAK2 inhibitor baricitinib was purchased from SelleckChem and used at a concentration of 3 mg/kg in vivo made up in a vehicle of 0.5% methyl cellulose.
Single-cell suspensions from the spleens were prepared by mechanical tissue disruption through a 70 μm cell strainer followed by red cell lysis. Cells were resuspended in FACS buffer (0.5% FCS in PBS) and filtered through a nylon mesh.
Whole islets were treated with vehicle or ABT 317 for 1 h before culture with 10 ng/ml IFN-γ for 72 h, and analysis by flow cytometry. Splenocytes and whole blood were stimulated with 100 U/ml IL-2, 50 ng/ml IL-7, 30 ng/ml IL-15, 25 ng/ml IL-21, or 40 ng/ml GM-CSF for 30 min at 37°C. Red blood cells were lysed (155 mmol/L NH4Cl, 10 mmol/L Tris-HCl, pH 7.5). Leukocytes were analyzed by flow cytometry.
Mouse islet cells were stained with anti-CD45 and biotinylated anti-H2Kd (BD Pharmingen) followed by streptavidin-allophycocyanin (BioLegend). β‐cells were identified by autofluorescence ([23]). Dead cells were excluded using propidium iodide. […] Data were collected on the FACS Fortessa cell analyzer (BD Bioscience, San Jose, CA, USA) and were analyzed using FlowJo Software version 10 (TreeStar, Inc, Ashland, OR, USA).
(In general: A flow cytometer gives signals particle by particle.)

For data set [4] the following is noted: cited from earlier work.
On the set-up of data set [5]: method as in PMID 29481660. The note with it: participants with diabetic kidney disease, phase 2 trial; cited from earlier work.
Data set [6] concerns JAK1 over JAK3. More on the design: method as in PMID 30806706, PMID 27390150. The following applies: cited from earlier work.
The test system of data set [7] is JAK1 over JAK2. More on the design: method as in PMID 30806706, PMID 27390150. The note with it: cited from earlier work.
The subject of data set [8] is JAK2-dependent cytokines IL-3 and GM-CSF. The following applies: cited from earlier work.

`Cc1cc(Nc2nc(N[C@@H](C)c3ncc(F)cn3)ncc2Cl)n[nH]1` [AZD1480]: in data set [1], the “IFN-γ mediated MHC class I upregulation on β cells” value is “blocked”. For the same compound, in data set [2], the established autoimmune insulitis entry is given as “reversed” and the “immune cell infiltration into pancreatic islets” value is reported as “reduced”.

For the compound `CCS(=O)(=O)N1CC(CC#N)(n2cc(-c3ncnc4[nH]ccc34)cn2)C1` [baricitinib], the “blocking IL-21 signaling through pSTAT3, dose dependence” value in data set [3] was “similar”. In addition, the “neutropenia in clinical trials” value in data set [4] is listed as “neutropenia has been found”. The albuminuria entry in data set [5] was “reduction”.

Regarding `O=C(Nc1nc2cccc(-c3ccc(CN4CCS(=O)(=O)CC4)cc3)n2n1)C1CC1` [filgotinib], the anemia result in data set [4] (rheumatoid arthritis patients) is recorded as “did not result in anemia”.

As to `C[C@@H]1CCN(C(=O)CC#N)C[C@@H]1N(C)c1ncnc2[nH]ccc12` [tofacitinib], in data set [3], the “blocking IL-21 signaling through pSTAT3, dose dependence” value is “similar”.

For the compound `CC[C@@H]1CN(C(=O)NCC(F)(F)F)C[C@@H]1c1cnc2cnc3[nH]ccc3n12` [upadacitinib], in data set [6], the “selectivity for JAK1 over JAK3” value is 58 fold. Moreover, the “selectivity for JAK1 over JAK2” value in data set [7] is 74 fold. In addition, the “effect on JAK2-dependent cytokines IL-3 and GM-CSF” value in data set [8] is “inhibits”.

The record behind these values is publication PMC7746546, “The JAK1 Selective Inhibitor ABT 317 Blocks Signaling Through Interferon-γ and Common γ Chain Cytokine Receptors to Reverse Autoimmune Diabetes in NOD Mice” (Frontiers in Immunology, 2020).
